These are literature values, as cited in patent US20130190368A1, “NOVEL POLYMORPHS OF FEBUXOSTAT” (HETERO RESEARCH FOUNDATION, priority 2010, published 2013).

The conditions of this data set: compared to allopurinol.

Regarding `Cc1nc(-c2ccc(OCC(C)C)c(C#N)c2)sc1C(=O)O` [febuxostat, 2-[3-cyano-4-(2-methylpropoxy)phenyl]-4-methyl-5-thiazolecarboxylic acid], the “amount of initial gout flares or surface area of gout tophi” value is “no difference” and the “individuals with decreased levels of uric acid” value is recorded as “more individuals treated with febuxostat had decreased levels of uric acid”.
